Measurements published in US12018059B2, “Human amylin analog polypeptides and methods of use” (Intarcia Therapeutics, Inc., priority 2018, dated 2024).
Values after ≈ are worked out from the molar mass of the structure shown. Read-outs that look alike come from different tables or passages of the source. Starred links: 1 amine or outer side, 2 acyl side, 3 side chain; linkers in the order of their positions; H or OH if unused. Positions of bridges follow the written chain, without caps; N, C: chain ends. Non-standard residues stand in square brackets, D forms with d. Residues, ends and D or L forms follow the SMILES beside them. Groups on a side chain read outwards from the residue. *: point of attachment. X2 = O=C(O)CCCCCCCCCCCCCCCCC(=O)N[C@@H](CCC(=O)NCOCCOCC(=O)NCOCCOCC(=O)*)C(=O)O; C20 diacid = O=C(O)CCCCCCCCCCCCCCCCCCC(=O)*; γGlu = O=C(O)[C@H](CCC(=O)[*:2])N[*:1]; Palmitoyl = CCCCCCCCCCCCCCCC(=O)*; AEEA = NCCOCCOCC(=O)O

Key:
[1] = molecular target: human amylin 3 receptor (hAMY3R) (Homo sapiens, UniProt O60896+P30988); assay: cAMP accumulation functional assay in HEK293-CNG cells expressing hAMY3R; assay type: cell-based
Method: (§1) In the presence of the non-specific cAMP/cGMP phosphodiesterase inhibitor 3-isobutyl-1-methylxanthine (IBMX), accumulating cAMP can be measured in vitro using common detection methods. Thus, it is possible to estimate an in vitro potency (pEC50) for peptides activating each of these receptors using fit dose-response curves for cAMP accumulation.
(§2) Cells were carried in growth media for no more than 10 passages prior to testing.
(§3) Peptides were serially diluted in the same buffer as above for each given assay condition. Two assay control solutions consisting of 50 mcM forskolin (cAMP system maximum) or assay buffer only (cAMP system minimum) were also prepared in the appropriate stimulation buffers. Five microliters of each peptide-concentration, or assay control was added to triplicate wells and incubated for thirty minutes at room temperature. During this incubation step a 4× europium labelled cAMP tracer solution and a 4× Ulight®-anti-cAMP solution (consisting of an anti-cAMP monoclonal antibody labelled with Ulight™ dye) was prepared according to the manufacturer's protocol (PerkinElmer LANCE Ultra cAMP kit). Following this incubation, 5 mcL europium labelled cAMP and 5 mcL Ulight anti-cAMP antibody was added to wells. The plate was covered with an adhesive cover to prevent evaporation and incubated for 60 minutes at room temperature in the dark. Plates were read on an Envision fluorescent plate reader (PerkinElmer).
(§4) Test values were first normalized to the forskolin induced cAMP system maximum and system minimum averaged values in Excel using the formula: (test value−system minavg)/(system maxavg−system minavg)*100. Normalized test values represent a baseline corrected percentage of the system maximum cAMP response induced by forskolin. Normalized data was analyzed from triplicate tests and used to estimate the EC50 for each peptide on each receptor. Data was fit in GraphPad Prism software (v7.04) using a 4-parameter logistic curve model: Y=Bottom+(Top−Bottom)/(1+10^((Log EC50−X))). The Hill slope was constrained to 1.0. EC50 values were converted to pEC50 values using the formula: pEC50=−Log (EC50).

[2] = molecular target: T1, human calcitonin receptor (hCTR) (Homo sapiens, UniProt P30988); assay: cAMP accumulation functional assay in HEK293-CNG cells expressing hCTR; assay type: cell-based
T1 sequence (P30988 25-474): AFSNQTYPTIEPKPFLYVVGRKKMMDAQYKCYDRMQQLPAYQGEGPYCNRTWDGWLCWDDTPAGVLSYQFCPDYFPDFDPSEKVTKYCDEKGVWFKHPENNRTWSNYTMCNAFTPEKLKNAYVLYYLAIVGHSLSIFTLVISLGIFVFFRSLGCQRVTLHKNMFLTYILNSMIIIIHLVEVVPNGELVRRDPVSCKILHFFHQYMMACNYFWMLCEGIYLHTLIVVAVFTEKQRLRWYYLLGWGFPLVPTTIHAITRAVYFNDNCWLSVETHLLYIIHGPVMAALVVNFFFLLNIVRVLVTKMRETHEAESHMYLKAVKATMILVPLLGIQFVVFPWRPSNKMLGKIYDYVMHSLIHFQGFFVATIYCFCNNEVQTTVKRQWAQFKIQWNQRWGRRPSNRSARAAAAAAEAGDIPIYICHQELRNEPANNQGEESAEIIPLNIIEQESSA
Method: as §1, §2, §3, §4

in vivo = assay: in vivo; parameters: species or system Sprague-Dawley rats; conditions: rat, iv, 0.033 mg/kg
How it was run: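 Male Sprague-Dawley rats, non-fasted (n=3), given peptide in saline as 1-h IV or SC infusion at 0.033 mg/kg, or SC bolus at 0.3 mg/kg; jugular blood to 48 h into K2EDTA plus protease inhibitors. Plasma extracted by precipitation or WCX solid-phase extraction, quantified by UPLC-MS/MS against standards in matching rat plasma.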

[3] = Acute food intake inhibition after SC bolus injection (BioDAQ); conditions: Long Evans rats on 45% high fat diet
[4] = Solubility of amylin analog polypeptides (visual inspection, room temperature); assay type: physicochemical; conditions: Solubility
Method: The analog polypeptides described herein were tested for solubility in saline 20% DMSO in water (i.e., bioassay buffer) or in aqueous (DI water) at room temperature. Samples were visually inspected for clarity of the sample, any appearance of turbidity or haziness.

[5] = 4% HSA, read-out: pEC50 hAMY3R 4% HSA (converted)
[6] = pEC50 hAMY3R 0.1% HSA, 0.1% HSA
[7] = hCTR 0% HSA, 0% HSA, read-out: pEC50 hCTR 0% HSA (converted)
[8] = hCTR 4% HSA, 4% HSA, read-out: pEC50 hCTR 4% HSA (converted)

human amylin 3 receptor (hAMY3R), sequence (O60896 24-148, one chain of several): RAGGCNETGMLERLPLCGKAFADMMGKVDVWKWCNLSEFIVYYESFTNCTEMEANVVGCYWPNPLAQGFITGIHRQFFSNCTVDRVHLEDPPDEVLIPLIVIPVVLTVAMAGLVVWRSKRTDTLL

EC50 [1, 5] [nM] | EC50 [1, 6] [nM] | EC50 [2, 7] [nM] | EC50 ([2]; hCTR 0.1% HSA, 0.1% HSA) [nM] | EC50 [2, 8] [nM] | Vd (in vivo) [L/kg] | clearance (in vivo) [mL/min/kg] | half-life (in vivo) [h] | solubility [4] [mg/mL] | EC50 ([1]; 0% HSA, read-out: pEC50 hAMY3R 0% HSA (converted)) [nM] | Compound | Acute Food Intake % Inhibition vs vehicle ([3]; 0-24 hr after acute SC dosing) [%] | Acute Food Intake % Inhibition vs vehicle ([3]; 25-48 hr after acute SC dosing) [%]
0.631 | 0.0158 | 0.0158 | 0.316 | 15.8 | 0.137 | 0.135 | 15 | – | – | CCCCCCCCCCCCCCCC(=O)N[C@@H](CCC(=O)N[C@@H](CCC(=O)N[C@@H](CCC(=O)N[C@@H](CCC(=O)NCCOCCOCC(=O)NCCOCCOCC(=O)N[C@@H](CCC(=O)NCCCC[C@H](NC(=O)[C@H](CCC(=O)O)NC(=O)[C@H](CC(N)=O)NC(=O)[C@H](C)NC(=O)[C@H](CC(C)C)NC(=O)[C@H](CCCNC(=N)N)NC(=O)[C@H](CCC(N)=O)NC(=O)[C@@H](NC(=O)[C@H](C)NC(=O)[C@@H]1CSSC[C@H](NC(=O)[C@@H](N)CO)C(=O)N[C@@H](CC(N)=O)C(=O)N[C@@H]([C@@H](C)O)C(=O)N[C@@H](CO)C(=O)N[C@@H]([C@@H](C)O)C(=O)N1)[C@@H](C)O)C(=O)N[C@@H](Cc1c[nH]cn1)C(=O)N[C@@H](CCCCN)C(=O)N[C@@H](CO)C(=O)N[C@@H](CO)C(=O)N[C@@H](CC(N)=O)C(=O)N[C@@H](CC(N)=O)C(=O)N[C@@H](Cc1ccccc1)C(=O)NCC(=O)N1CCC[C@H]1C(=O)N[C@H](C(=O)N[C@@H](CC(C)C)C(=O)N1CCC[C@H]1C(=O)N1CCC[C@H]1C(=O)N[C@H](C(=O)N[C@@H](CCCCN)C(=O)N[C@H](C(=O)NCC(=O)N[C@@H](CO)C(=O)N[C@@H](CCC(=O)O)C(=O)N[C@H](C(=O)N[C@@H](Cc1ccc(O)cc1)C(N)=O)[C@@H](C)O)C(C)C)[C@@H](C)O)[C@@H](C)CC)C(=O)O)C(=O)O)C(=O)O)C(=O)O)C(=O)O [Compound A5] (H-SCNTSTCATQRLANEK([γGlu-AEEA-AEEA-γGlu-γGlu-γGlu-γGlu-Palmitoyl])HKSSNNFGPILPPTKVGSETY-NH2; disulfide 2-7; N-terminus assumed) | 37 | –
– | – | – | – | – | 0.194 | 0.259 | 9.59 | 78.3 (≈ 16.5 mM) | – | CCCCCCCCCCCCCCCC(=O)N[C@@H](CCC(=O)N[C@@H](CCC(=O)N[C@@H](CCC(=O)N[C@@H](CCC(=O)NCCCC[C@@H](NC(=O)[C@H](CCC(=O)O)NC(=O)[C@H](CC(N)=O)NC(=O)[C@H](C)NC(=O)[C@H](CC(C)C)NC(=O)[C@H](CCCNC(=N)N)NC(=O)[C@H](CCC(N)=O)NC(=O)[C@@H](NC(=O)[C@H](C)NC(=O)[C@@H]1CSSC[C@H](NC(=O)[C@@H](N)CO)C(=O)N[C@@H](CC(N)=O)C(=O)N[C@@H]([C@@H](C)O)C(=O)N[C@@H](CO)C(=O)N[C@@H]([C@@H](C)O)C(=O)N1)[C@@H](C)O)C(=O)N[C@@H](Cc1c[nH]cn1)C(=O)N[C@@H](CCCCN)C(=O)N[C@@H](CO)C(=O)N[C@@H](CO)C(=O)N[C@@H](CC(N)=O)C(=O)N[C@@H](CC(N)=O)C(=O)N[C@@H](Cc1ccccc1)C(=O)NCC(=O)N1CCC[C@H]1C(=O)N[C@H](C(=O)N[C@@H](CC(C)C)C(=O)N1CCC[C@H]1C(=O)N1CCC[C@H]1C(=O)N[C@H](C(=O)N[C@@H](CCCCN)C(=O)N[C@H](C(=O)NCC(=O)N[C@@H](CO)C(=O)N[C@@H](CCC(=O)O)C(=O)N[C@H](C(=O)N[C@@H](Cc1ccc(O)cc1)C(N)=O)[C@@H](C)O)C(C)C)[C@@H](C)O)[C@@H](C)CC)C(=O)O)C(=O)O)C(=O)O)C(=O)O [Compound A66] (H-SCNTSTCATQRLANE[dK]([γGlu-γGlu-γGlu-γGlu-Palmitoyl])HKSSNNFGPILPPTKVGSETY-NH2; disulfide 2-7) | – | –
– | – | – | – | – | 0.159 | 0.119 | 17.4 | – | – | CC[C@H](C)[C@H](NC(=O)[C@@H]1CCCN1C(=O)CNC(=O)[C@H](Cc1ccccc1)NC(=O)[C@H](CC(N)=O)NC(=O)[C@H](CC(N)=O)NC(=O)[C@H](CO)NC(=O)[C@H](CO)NC(=O)[C@H](CCCCN)NC(=O)[C@H](Cc1c[nH]cn1)NC(=O)[C@H](CC(C)C)NC(=O)[C@H](CCCCNC(=O)COCCOCNC(=O)COCCOCNC(=O)CC[C@H](NC(=O)CCCCCCCCCCCCCCCCC(=O)O)C(=O)O)NC(=O)[C@H](CC(N)=O)NC(=O)[C@H](C)NC(=O)[C@H](CC(C)C)NC(=O)[C@H](CCCNC(=N)N)NC(=O)[C@H](CCC(N)=O)NC(=O)[C@@H](NC(=O)[C@H](C)NC(=O)[C@@H]1CSSC[C@H](NC(=O)[C@@H](N)CO)C(=O)N[C@@H](CC(N)=O)C(=O)N[C@@H]([C@@H](C)O)C(=O)N[C@@H](CO)C(=O)N[C@@H]([C@@H](C)O)C(=O)N1)[C@@H](C)O)C(=O)N[C@@H](CC(C)C)C(=O)N1CCC[C@H]1C(=O)N1CCC[C@H]1C(=O)N[C@H](C(=O)N[C@@H](CCCCN)C(=O)N[C@H](C(=O)NCC(=O)N[C@@H](CO)C(=O)N[C@@H](CCC(=O)O)C(=O)N[C@H](C(=O)N[C@@H](Cc1ccc(O)cc1)C(N)=O)[C@@H](C)O)C(C)C)[C@@H](C)O [Compound A98] (H-SCNTSTCATQRLANK(X2)LHKSSNNFGPILPPTKVGSETY-NH2; disulfide 2-7; N-terminus assumed) | 23 | 24
10 | 0.501 | 0.0126 | 3.16 | 31.6 | 0.0998 | 0.0409 | 32.6 | – | 0.00251 | CC[C@H](C)[C@H](NC(=O)[C@@H]1CCCN1C(=O)CNC(=O)[C@H](Cc1ccccc1)NC(=O)[C@H](CC(N)=O)NC(=O)[C@H](CC(N)=O)NC(=O)[C@H](CO)NC(=O)[C@H](CO)NC(=O)[C@H](CCCCN)NC(=O)[C@H](Cc1c[nH]cn1)NC(=O)[C@H](CC(C)C)NC(=O)[C@H](CCC(=O)O)NC(=O)[C@H](CC(N)=O)NC(=O)[C@H](C)NC(=O)[C@H](CC(C)C)NC(=O)[C@H](CCCNC(=N)N)NC(=O)[C@H](CCC(N)=O)NC(=O)[C@@H](NC(=O)[C@H](C)NC(=O)[C@@H]1CSSC[C@H](NC(=O)[C@@H](N)CCCCNC(=O)CC[C@H](NC(=O)CC[C@H](NC(=O)COCCOCCNC(=O)COCCOCCNC(=O)CC[C@H](NC(=O)CCCCCCCCCCCCCCCCCCC(=O)O)C(=O)O)C(=O)O)C(=O)O)C(=O)N[C@@H](CC(N)=O)C(=O)N[C@@H]([C@@H](C)O)C(=O)N[C@@H](CO)C(=O)N[C@@H]([C@@H](C)O)C(=O)N1)[C@@H](C)O)C(=O)N[C@@H](CC(C)C)C(=O)N1CCC[C@H]1C(=O)N1CCC[C@H]1C(=O)N[C@H](C(=O)N[C@@H](CCCCN)C(=O)N[C@H](C(=O)NCC(=O)N[C@@H](CO)C(=O)N[C@@H](CCC(=O)O)C(=O)N[C@H](C(=O)N[C@@H](Cc1ccc(O)cc1)C(N)=O)[C@@H](C)O)C(C)C)[C@@H](C)O [Compound A112] (H-K([γGlu-γGlu-AEEA-AEEA-γGlu-C20 diacid])CNTSTCATQRLANELHKSSNNFGPILPPTKVGSETY-NH2; disulfide 2-7) | – | –
